The supplement of paper PMC10307832

Assays:
[1] = compound: COCC[n+]1c2c(n(Cc3cnccn3)c1C)C(=O)c1ccccc1C2=O [YM155] + COc1cc2c(Oc3ccc(NC(=O)C4(C(=O)Nc5ccc(F)cc5)CC4)cc3F)ccnc2cc1OCCCN1CCOCC1 [Foretinib] (partner 0.25 µM); assay: relative viability (nuclei count vs DMSO), 5 days (fraction); higher = more cells survive
Method in brief: (§1)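 Relative viability divides the nuclei count in treated wells by that in vehicle wells. Lung cancer cell lines were seeded in 1536-well plates, dosed by pin tool the next day, and fixed and stained after 5 days in one step with final 0.05% Triton X-100, 1% formaldehyde and 1 ug/ml Hoechst. Dosing was a single drug or a fixed anchor-drug dose plus five library-drug doses (not always all listed) in √10 steps, and values are medians of duplicate plates imaged at 4×.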

[2] = compound: CC(C)(C)c1cc(NC(=O)Nc2ccc(-c3cn4c(n3)sc3cc(OCCN5CCOCC5)ccc34)cc2)no1 [Quizartinib] + CC1(C)CCC(c2ccc(Cl)cc2)=C(CN2CCN(c3ccc(C(=O)NS(=O)(=O)c4ccc(N[C@H](CCN5CCOCC5)CSc5ccccc5)c(S(=O)(=O)C(F)(F)F)c4)cc3)CC2)C1 [Navitoclax] (partner 0.5 µM); assay: as above
Method in brief: as §1

| Cell Line | relative viability ([1]; first compound 0.002 µM) | relative viability ([1]; first compound 0.006325 µM) | relative viability ([1]; first compound 0.02 µM) | relative viability ([1]; first compound 0.06325 µM) | relative viability ([2]; first compound 0.001 µM) | relative viability ([2]; first compound 0.01 µM) | relative viability ([2]; first compound 0.03162 µM) | relative viability ([2]; first compound 0.1 µM) | relative viability ([2]; first compound 0.003162 µM) |
| --- | --- | --- | --- | --- | --- | --- | --- | --- | --- |
| NCI-H650 | 0.985 | 0.932 | 0.988 | 1.06 |  |  |  |  |  |
| NCI-H661 | 1.03 | 1.02 | 1.03 | 0.494 |  |  |  |  |  |
| NCI-H727 | 0.951 | 0.902 | 1.14 | 1.03 | 0.408 | 0.611 | 0.476 | 0.357 |  |
| NCI-H838 | 1.04 | 1.02 | 1.09 | 0.479 | 1.09 | 1.08 | 1.06 | 0.815 | 1.06 |
| NCI-H1299 | 1.12 | 1.07 | 1.16 | 1.04 |  | 1.02 | 1.01 | 1.04 | 1.03 |
| NCI-H1355 | 0.932 | 1.02 | 1.06 | 0.964 | 0.868 | 0.912 | 1 | 1 | 0.921 |
| NCI-H1395 | 0.943 | 0.91 | 0.984 | 1.01 | 1.05 | 1.14 | 1.59 | 1.36 | 1.07 |
| NCI-H1437 | 1.21 | 1.24 | 1.26 | 0.984 | 0.954 | 1.04 | 0.904 | 0.8 | 0.994 |
| NCI-H1563 | 0.89 | 0.935 | 1.09 | 1.02 |  |  |  |  |  |
| NCI-H1623 | 0.89 | 0.865 | 0.987 | 0.872 |  |  |  |  |  |
| NCI-H1650 | 1.07 | 1.11 | 0.932 | 0.57 | 0.928 | 1.35 |  | 1.24 | 1.25 |
| NCI-H1651 | 0.864 | 0.785 | 0.84 | 0.603 | 0.848 | 0.963 | 0.845 | 0.995 | 0.895 |
| NCI-H1666 | 0.917 | 0.996 | 0.988 | 0.942 | 0.773 | 1.06 | 0.743 | 0.866 | 0.949 |
| NCI-H1703 | 0.309 | 0.355 | 0.381 | 0.276 | 0.978 | 0.234 | 0.214 | 0.296 | 0.474 |
| NCI-H1734 | 0.853 | 0.723 | 0.914 | 0.989 | 0.741 | 0.888 | 0.788 | 0.849 | 0.794 |
| NCI-H1755 | 0.853 | 0.934 | 0.884 | 0.976 | 0.925 | 1.01 | 1 | 0.926 | 0.976 |
| NCI-H1792 |  |  |  |  | 0.584 | 0.697 | 0.617 | 0.587 | 0.646 |
| NCI-H1793 | 0.626 | 0.875 | 0.675 | 0.79 | 0.414 | 0.496 | 0.423 | 0.331 | 0.304 |
| NCI-H1915 | 1.05 | 1.08 | 1.08 | 0.963 | 0.771 | 0.833 | 0.822 | 0.785 | 0.75 |
| NCI-H1944 | 0.818 | 0.888 | 0.852 | 0.91 | 0.888 | 1.06 | 1.08 | 1.07 | 1.07 |
